Measurements reported in patent US20230263758A1, “COMPOSITIONS OF EDTA HAVING ACTIVITY AGAINST PLANKTONIC AND BIOFILM CELLS OF CLINICALLY RELEVANT PATHOGENS” (SterileCare Inc., priority 2022, published 2023).
Structures can show the parent of a compound that is named as a salt.

Tests used:
MRSA ON184 [1] = assay: Checkerboard, FMCI; type: cell-based, Staphylococcus aureus; conditions: EDTA + chlorhexidine HCl
Experimental: (§1) An assay was made using a minimum inhibitory concentration (MIC) and minimum bactericidal concentration (MBC) and minimum fungicidal concentration (MFC) determination. The MIC was determined by the micro broth dilution method in 96-well plates. Serial two-fold dilutions of tetrasodium EDTA (from 2% to 0.015%), ethanol (from 50% to 0.1%) and chlorhexidine HCl (from 100 μg/mL to 0.025 μg/mL) were prepared in MH broth with a final volume of 90 μL per well. A 10 μL containing 1×10^5 bacterial cells or 2×10^3 fungal cells were added to each well. The inoculated plates were covered with a lid, sealed with Parafilm, and incubated for 24 h at 37° C. with slight rocking on a tilting platform shaker. After incubation, the optical density at 600 nm (OD 600) of the cultures in each well was measured using an xMark™ Microplate Absorbance Spectrophotometer (Bio-Rad). […] MBCs and MFCs were determined by transferring 100 μL from each well with no apparent growth onto appropriate agar plates, followed by incubation for 24 h at 37° C.
A fourth composition and solution included tetrasodium EDTA with ethanol or chlorhexidine HCl. […] The concentrations of antimicrobials used were based on previously determined MIC values. […] Microtiter plates were incubated at 37° C. for 24 h, and the results were analyzed. […]

Proteus mirabilis ON153 [2] = assay: Checkerboard FBEC index, 48-h biofilm; type: cell-based; conditions: P. mirabilis ON153 biofilm; EDTA + chlorhexidine HCl
Experimental: (§2) In step (4), microtiter plates are incubated at 37° C. for 24 h. then (6), after incubation, the bacterial and fungal cells were dislodged from the pegs into the recovery medium described above.
(§3) Three 10-μL aliquots, for a total of 30 μL from each well of recovery medium, were spotted on MH agar plates and incubated for 24 h at 37° C. […] The FBEC determination is a modification of the FICI.

S. epidermidis SK9 [3] = assay: MIC, micro broth dilution; type: cell-based, Staphylococcus epidermidis; conditions: agent alone
Experimental: as §1

Candida albicans SK4b [4] = assay: MIC, micro broth dilution; type: cell-based; conditions: C. albicans SK4b; agent alone
Experimental: as §1

Escherichia coli ON29 = assay: MIC, micro broth dilution; type: cell-based; conditions: E. coli ON29; agent alone
Experimental: as §1

Proteus mirabilis ON153 [5] = assay: MIC, micro broth dilution; type: cell-based; conditions: P. mirabilis ON153; agent alone
Experimental: as §1

[6] = system: Pseudomonas aeruginosa SK1; assay: MIC, micro broth dilution; type: cell-based; conditions: P. aeruginosa SK1; agent alone
Experimental: as §1

Serratia marcescens SK2 [7] = assay: MIC, micro broth dilution; type: cell-based; conditions: S. marcescens SK2; agent alone
Experimental: as §1

[8] = system: Staphylococcus aureus ON89; assay: MIC, micro broth dilution; type: cell-based; conditions: S. aureus ON89; agent alone
Experimental: as §1

[9] = system: Staphylococcus epidermidis ON170; assay: MIC, micro broth dilution; type: cell-based; conditions: S. epidermidis ON170; agent alone
Experimental: as §1

[10] = system: Stenotrophomonas maltophilia ON17; assay: MIC, micro broth dilution; type: cell-based; conditions: S. maltophilia ON17; agent alone
Experimental: as §1

MRSA ON184 [11] = assay: MIC, micro broth dilution; type: cell-based, Staphylococcus aureus; conditions: agent alone
Experimental: as §1

E. coli SK2 = assay: MIC, micro broth dilution; type: cell-based, Escherichia coli; conditions: agent alone
Experimental: as §1

C. albicans ON47 [12] = assay: MIC, micro broth dilution; type: cell-based, Candida albicans; conditions: agent alone
Experimental: as §1

S. epidermidis SK9 [13] = assay: MBC/MFC determination; type: cell-based, Staphylococcus epidermidis; conditions: agent alone
Experimental: as §1

Candida albicans SK4b [14] = assay: MBC/MFC determination; type: cell-based; conditions: C. albicans SK4b; agent alone
Experimental: as §1

Proteus mirabilis ON153 [15] = assay: MBC/MFC determination; type: cell-based; conditions: P. mirabilis ON153; agent alone
Experimental: as §1

Serratia marcescens SK2 [16] = assay: MBC/MFC determination; type: cell-based; conditions: S. marcescens SK2; agent alone
Experimental: as §1

[17] = system: Staphylococcus epidermidis ON170; assay: MBC/MFC determination; type: cell-based; conditions: S. epidermidis ON170; agent alone
Experimental: as §1

MRSA ON184 [18] = assay: MBC/MFC determination; type: cell-based, Staphylococcus aureus; conditions: agent alone
Experimental: as §1

C. albicans ON47 [19] = assay: MBC/MFC determination; type: cell-based, Candida albicans; conditions: agent alone
Experimental: as §1

MRSA ON184 [20] = assay: MBEC assay, 48-h biofilm; type: cell-based, Staphylococcus aureus; conditions: MRSA ON184 48-h biofilm; 24 h exposure
Experimental: A biofilm cultivation cell composition was provided. This fifth composition was created using an MBEC Assay® biofilm inoculator, consisting of a polystyrene lid with 96 downward-protruding pegs and a corresponding base used to grow biofilms. A standardized inoculum was diluted in an appropriate biofilm growth medium to achieve a viable cell count of 1.5×10^6 CFU/mL of bacterial cells or 5×10^5 CFU/mL of fungal cells. Then, 150 μL of this inoculum was transferred into each appropriate well, and the peg lids were inserted into the microtiter plates. The plates were sealed with Parafilm and were incubated at optimum temperature for 48 h with slight rocking for bacteria and shaking at 200 rpm for fungal strains. After incubation, the peg lid was removed from the base and rinsed twice with sterile phosphate-buffered saline (PBS) for 2 min to remove loosely attached non-sessile cells. Before the antimicrobial challenge, the pegs in column 1 (n=8) were considered the biofilm growth control; these pegs were removed from the lids, placed into 200 μL of recovery medium, and analyzed for starting biofilm cell numbers as described below. […] MBEC values were determined as the minimum concentration of antimicrobials that yielded a viable cell count at or lower than the 125 CFU/mL detection limit.

MRSA ON184 [21] = assay: Checkerboard FBEC index, 48-h biofilm; type: cell-based, Staphylococcus aureus; conditions: EDTA + chlorhexidine HCl
Experimental: as §2, §3

Candida albicans SK4b [22] = assay: Checkerboard FBEC index, 48-h biofilm; type: cell-based; conditions: C. albicans SK4b biofilm; EDTA + chlorhexidine HCl
Experimental: as §2, §3

Question: Which “Microbicidal concentration in combination” value (MRSA ON184 [1]) does the source give for [H]/N=C(\N/C(=N/[H])NCCCCCCNC(=N)NC(=N)Nc1ccc(Cl)cc1)Nc1ccc(Cl)cc1 [Chlorhexidine HCl, chlorhexidine HCl, reference compound] here?
Answer: Its value is 0.4 µg/mL.

Question: What about the “Biofilm eradication concentration in combination (FBEC)” value (from here on “Biofilm eradication concentration”) (Proteus mirabilis ON153 [2]) of the same molecule?
Answer: The value was 3.125 µg/mL.

Question: How did the MIC (S. epidermidis SK9 [3]) turn out when O=C([O-])CN(CCN(CC(=O)[O-])CC(=O)[O-])CC(=O)[O-].[Na+].[Na+].[Na+].[Na+] [EDTA, tetrasodium EDTA] was run?
Answer: The MIC was 0.063 % w/v.

Question: And the MIC (Candida albicans SK4b [4])?
Answer: The MIC was 1 % w/v.

Question: What about the MIC (Escherichia coli ON29) of the same molecule?
Answer: The MIC was 0.5 % w/v.

Question: And the MIC (Proteus mirabilis ON153 [5])?
Answer: The MIC was 1 % w/v.

Question: And the MIC [6]?
Answer: The MIC was 0.25 % w/v.

Question: What about the MIC (Serratia marcescens SK2 [7]) of the same molecule?
Answer: Its MIC is 2 % w/v.

Question: What about the MIC [8] of the same molecule?
Answer: Its MIC is 0.063 % w/v.

Question: What about the MIC [9] of the same molecule?
Answer: Its MIC is 0.063 % w/v.

Question: And the MIC [10]?
Answer: The MIC was 0.063 % w/v.

Question: And the MIC (MRSA ON184 [11])?
Answer: The MIC was 0.063 % w/v.

Question: What about the MIC (E. coli SK2) of the same molecule?
Answer: The MIC was 0.5 % w/v.

Question: And the MIC (C. albicans ON47 [12])?
Answer: The MIC was 1 % w/v.

Question: What about the MBC/MFC (S. epidermidis SK9 [13]) of the same molecule?
Answer: Its MBC/MFC is 0.5 % w/v.

Question: And the MBC/MFC (Candida albicans SK4b [14])?
Answer: The MBC/MFC was 1 % w/v.

Question: What about the MBC/MFC (Proteus mirabilis ON153 [15]) of the same molecule?
Answer: The MBC/MFC was 2 % w/v.

Question: What about the MBC/MFC (Serratia marcescens SK2 [16]) of the same molecule?
Answer: Its MBC/MFC is 2 % w/v.

Question: And the MBC/MFC [17]?
Answer: The MBC/MFC was 0.5 % w/v.

Question: What about the MBC/MFC (MRSA ON184 [18]) of the same molecule?
Answer: Its MBC/MFC is 2 % w/v.

Question: And the MBC/MFC (C. albicans ON47 [19])?
Answer: The MBC/MFC was 1 % w/v.

Question: What about the MBEC (MRSA ON184 [20]) of the same molecule?
Answer: The MBEC was 2 % w/v.

Question: What about the “Biofilm eradication concentration” value (MRSA ON184 [21]) of the same molecule?
Answer: The value was 0.031 % w/v.

Question: What about the “Biofilm eradication concentration” value (Candida albicans SK4b [22]) of the same molecule?
Answer: The value was 0.063 % w/v.
